Structures are written as SMILES. Values after ≈ are worked out from the molar mass of the structure shown. Read-outs that look alike come from different tables or passages of the source. A value given as a limit tells only on which side of the number the result lay.

Results on 12 compounds are retold here after patent US5700838A, “Hydroxamic acid derivatives as metalloproteinase inhibitors” (British Biotech Pharmaceuticals Limited, priority 1992, dated 1997).

Series [1] has as its system TNF α release from U937 cells. The experiment in a line: Inhibition of PMA-stimulated TNF α release from U937 cells (ELISA). As to conditions: Homo sapiens, read-out: IC50 for release of TNF α (average concentration inhibiting release by 50% relative to control). The format is cell-based.
Series [2] in a line: Aqueous solubility at ambient temperature. The format is physicochemical. As to conditions: in water. The protocol:
The solubilities of compounds of the invention in water at ambient temperature were measured, and compared with comparison compounds C1 and C2 (identified in Biological Example A above).

The target of series [3] is T1, collagenase (Homo sapiens, UniProt P03956).
T1 sequence (P03956 100-469): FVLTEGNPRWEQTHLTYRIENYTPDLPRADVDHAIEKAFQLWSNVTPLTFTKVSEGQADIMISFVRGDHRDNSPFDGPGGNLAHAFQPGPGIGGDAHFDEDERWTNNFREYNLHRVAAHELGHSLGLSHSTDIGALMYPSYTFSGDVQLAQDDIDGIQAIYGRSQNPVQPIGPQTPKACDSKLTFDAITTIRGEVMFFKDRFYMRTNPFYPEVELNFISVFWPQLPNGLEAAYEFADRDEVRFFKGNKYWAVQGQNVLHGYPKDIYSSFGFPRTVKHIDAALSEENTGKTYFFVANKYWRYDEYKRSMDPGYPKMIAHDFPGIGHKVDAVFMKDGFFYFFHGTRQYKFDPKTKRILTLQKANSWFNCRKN
The experiment in a line: biochemical.
Text: (§1) The samples were centrifuged to sediment undigested collagen, and an aliquot of the radioactive supernatant removed for assay on a scintillation counter as a measure of hydrolysis.

The conditions of series [4]: rat, in vivo, po, 360 min.
Experimental: (§2) The concentration over time of compounds of the invention in the blood of laboratory animals following administration of the test compounds was measured.
(§3) Test compounds were administered by gavage to 6 male rats (300 g) per treatment group. Blood samples were removed by tail venepuncture at 0.5, 1.0, 2.0, 6.0 and 24 hours post administration. 0.4 ml of blood was placed into 4.5 ml tubes containing 0.1 ml acid citrate dextrose (ACD) as anti-coagulant. For extraction, 3 ml methanol was added and the precipitated blood pelletted by centrifugation (30 min at 3000 rpm). A 2 ml aliquot of supernatant was removed and concentrated by lyophilisation. The extract was redissolved in 200 μl DMSO and a 10 μl aliquot assayed for collagenase inhibitory activity.
Series [5] can be described thus: in vivo. The settings on record: rat, po.
Experimental: as §2, §3
The target in series [6] is T2, stromelysin (Homo sapiens, UniProt P08254). The experiment in a line: biochemical.
Text: (§4) The casein was acetylated ^14 C casein prepared by the method of Cawston et al (ibid).
Series [7] concerns adjuvant-induced arthritis. In words: Adjuvant-induced arthritis model (hindpaw swelling). The format is in vivo, male Lewis rats. As to conditions: b.i.d. days 13 to 17, Example 1 dosed at 10 mg/kg. The protocol: The activities of the compound of example 1 above and comparison compound C1 (see Biological Example A above) were assessed in an adjuvant-induced arthritis model. Adjuvant arthritis was produced in male Lewis rats (Charles River) by a single intradermal injection of 0.75 mg of M. butyricum in light paraffin oil (Freunds complete adjuvant--FCA) into the base of the tail. The "secondary" lesion occurs after a delay of 10 days, and is characterised by inflammation of the […] volumes were measured plethysmographically by water displacement. The test compound was dosed b.i.d. from days 13 to 17. Paw volume on day 20 was measured and compared to that on day 13. The experiment was terminated on day 23.

The test system of series [8] is HOSP1.P mammary carcinoma cells. The experiment in a line: Lung colonisation assay, rat mammary carcinoma model. The format is in vivo. The protocol:
The compound of example 1 above was tested for activity in vivo in a rat mammary carcinoma model. A lung colonisation assay was performed in order to determine whether the compound of example 1 above is effective in inhibiting lung colonisation by circulating HOSP1.P mammary carcinoma cells after oral administration.
HOSP1.P cells (1×10^5 cells/animal) were administered to two groups of 12 rats by injection into the jugular vein. The product of example 1 was administered p.o. to one group at 30 mg/kg at -4, +1, +6, +24 and +72 hours relative to tumor cell inoculation at 0 hours. The second (control) group received only vehicle (p.o.) by the same schedule. Animals were killed after 34 days. Lungs were removed and individual tumors counted after 24 hours fixation in Methacarn. […] (p<0.01, Mann-Whitney, two tailed).

The nature of series [9]: Blood concentration over time after oral gavage in rats, determined as collagenase inhibitory activity of extracts. The settings on record: for AUC (0-6 h) in number of IC50's × hours: oral gavage, male rats, Example 1: average of two results; for AUC(0-t) at 6 h / Tmax: rat, po.
Experimental: as §2, §3
Series [10] addresses T1, collagenase. As to conditions: read-out: Collagenase IC50; 37°, 16 hours, pH 7.5.
Text: as §1
Series [11] has as its target T2, stromelysin. As to conditions: read-out: Stromelysin IC50; 37°, 16 hours, pH 7.5.
Text: as §4
[12] abbreviates: U-937, U937 cells, PMA 50 nM, 18 hours, 37° C.

T2 sequence (P08254 100-477): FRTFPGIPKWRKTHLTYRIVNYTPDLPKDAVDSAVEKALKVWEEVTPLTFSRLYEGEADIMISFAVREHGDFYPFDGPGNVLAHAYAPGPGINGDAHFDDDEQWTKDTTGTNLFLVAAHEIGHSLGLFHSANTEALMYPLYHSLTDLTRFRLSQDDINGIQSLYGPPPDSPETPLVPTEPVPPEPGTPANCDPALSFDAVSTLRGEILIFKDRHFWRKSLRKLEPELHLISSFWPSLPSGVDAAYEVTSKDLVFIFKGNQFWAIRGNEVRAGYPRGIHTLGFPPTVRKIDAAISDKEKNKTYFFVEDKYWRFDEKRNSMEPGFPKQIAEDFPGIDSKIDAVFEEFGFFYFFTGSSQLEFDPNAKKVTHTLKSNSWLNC

Consider `CC(C)C[C@@H](C(=O)NC1CCCCCCCCCCNC1=O)[C@H](O)C(=O)NO` (stereo partly drawn) [Example 5, N^3-[3S-Hydroxy-4-(N-hydroxyamino)-2R-isobutylsuccinyl]amino-1-azacyclotridecan-2-one], for which the results for the IC50 in series [1] (setting [12]) and in series [3] were below 50 µM and 0.02 µM, respectively. In series [2], this compound came in with a solubility of 140 µg/mL (≈ 350 µM).
Turning to `CNC(=O)[C@@H](NC(=O)[C@H](CC(C)C)[C@H](O)C(=O)NO)C(C)(C)C` [Example 10, N^2-[3S-Hydroxy-4-(N-hydroxyamino)-2R-isobutylsuccinyl]-L-tert-leucine-N^1-methylamide], the IC50 in series [1] (U-937, 18 h) was below 50 µM. Further, the solubility in series [2] was 1400 µg/mL (≈ 4220 µM). In addition, the “AUC (0-6 h) in number of IC50's × hours” value in series [4] came out at 190 n IC50 's × h. Further, in series [5], the area under the curve AUC(0-t) at 6 h amounted to 343 ng·h/mL and the time to peak (Tmax) was 30 min.
In series [2], `CC(C)C[C@@H](C(=O)N[C@@H](CC1CCCCC1)C(=O)NCCCN1CCCC1=O)[C@H](O)C(=O)NO` [Example 9, N^2-[3S-Hydroxy-4-(N-hydroxyamino)-2R-isobutylsuccinyl]-L-cyclohexyl alanine-N^1-(3-(2-pyrrolidone)propyl)amide] showed a solubility of 1800 µg/mL (≈ 3730 µM). This compound came in with an IC50 in series [3] of 0.03 µM.
Regarding `CNC(=O)[C@H](Cc1ccc(OCC(=O)O)cc1)NC(=O)[C@H](CC(C)C)[C@H](O)C(=O)NO` [Example 2, N^2-[3S-Hydroxy-4-(N-hydroxyamino)-2R-isobutylsuccinyl]-L-(4-oxymethylcarboxy) phenylalanine-N^1-methylamide], the IC50 was below 50 µM in [1] (setting [12]), 0.03 µM in [3] and 0.2 µM in [6]. In [2], the solubility was found to be 13100 µg/mL (≈ 29900 µM).
In series [2], `CNC(=O)[C@H](Cn1cccn1)NC(=O)[C@H](CC(C)C)[C@H](O)C(=O)NO` [Example 6, N^2-[3S-Hydroxy-4-(N-hydroxyamino)-2R-isobutylsuccinyl]-L-3-(1-pyrazolyl)alanine-N^1-methylamide] displayed a solubility of 330 µg/mL (≈ 929 µM). For the same compound, the values for the IC50 in series [3] and in series [6] were 0.03 µM and 3 µM, respectively.
In [2], `CNC(=O)[C@H](Cc1ccc(-c2ccccc2)cc1)NC(=O)[C@H](CC(C)C)[C@H](O)C(=O)NO` [Example 4, N^2-[3S-Hydroxy-4-(N-hydroxyamino)-2R-isobutylsuccinyl]-L-(4-phenyl)-phenylalanine-N^1-methylamide] came in with a solubility of 110 µg/mL (≈ 249 µM).
Consider `CNC(=O)[C@@H](NC(=O)[C@H](CC(C)C)[C@H](O)C(=O)NO)c1ccccc1` [Example 3, N^2-[3S-Hydroxy-4-(N-hydroxyamino)-2R-isobutylsuccinyl]-L-phenylglycine-N^1-methylamide], for which, in series [2], the solubility was determined as 2340 µg/mL (≈ 6660 µM). Besides, the IC50 in series [3] amounted to 0.1 µM.
In [2], `CNC(=O)[C@H](CCC(=O)NO)NC(=O)[C@H](CC(C)C)[C@H](O)C(=O)NO` [Example 7, N^2-[3S-Hydroxy-4-(N-hydroxyamino)-2R-isobutylsuccinyl]-L-4-(N-hydroxyamino)glutamic acid-N^1-methylamide] had a solubility of 180 µg/mL (≈ 497 µM). Besides, the IC50 in [3] is 0.15 µM; in series [6], 0.5 µM.
Turning to `CNC(=O)[C@H](CC1CCCCC1)NC(=O)[C@H](CC(C)C)[C@H](O)C(=O)NO` [Example 1, N^2-[3S-Hydroxy-4-(N-hydroxyamino)-2R-isobutylsuccinyl]-L-cyclohexyl alanine-N^1 methylamide], the “reduction in swelling relative to control (paw volume day 20 vs day 13)” value in [7] is given as “statistically significant (p<0.01) reduction in swelling relative to control”. The “Lung Colony Number, Mean” value in [8] (30 mg/kg p.o. at -4, +1, +6, +24, +72 hours, 34 days, control mean 70.50) was 38.91. Moreover, the “Lung Colony Number, Median” value in series [8] (30 mg/kg p.o. at -4, +1, +6, +24, +72 hours, 34 days, control median 71.50, p <0.01) turned out to be 38.50. The extrapulmonary tumors entry in series [8] (30 mg/kg p.o., 34 days) was “No extrapulmonary tumors were found”. Also, in series [8] (30 mg/kg p.o., p<0.01, Mann-Whitney, two tailed), the “inhibition of lung colonisation relative to control group” value is listed as “significant inhibition of lung colonisation relative to the control group”. For the same compound, in series [1] (setting [12]), the IC50 was below 50 µM. Further, the concentration in solution in series [2] (solubility) came to 100 µg/mL (≈ 269 µM). Further, the IC50 in series [6] amounted to 0.06 µM. For the same compound, in series [9], the “AUC (0-6 h) in number of IC50's × hours” value is recorded as 46.2 n IC50 's × h, the AUC(0-t) at 6 h came out at 143 ng·h/mL and the time to peak (Tmax) stood at 30 min.
In turn, `CCOC(=O)CNC(=O)[C@H](CC(C)C)NC(=O)[C@H](CC(C)C)[C@H](CCCCN1C(=O)c2ccccc2C1=O)C(=O)NO` [Example C2] registered a solubility in series [2] below 100 µg/mL. The IC50 in series [10] worked out at 0.007 µM. Further, in series [11], the IC50 came out at 0.07 µM. Also, in series [9], the “AUC (0-6 h) in number of IC50's × hours” value worked out at 2.12 n IC50 's × h, the AUC(0-t) at 6 h is 5.3 ng·h/mL and the Tmax is 60 min.
Consider `CCOC(=O)[C@H](C)NC(=O)[C@H](CC(C)C)NC(=O)[C@@H](CC(=O)NO)CC(C)C` [Example C1, reference compound], for which the “reduction in swelling relative to control (paw volume day 20 vs day 13)” value in series [7] is on record as “no effect”. In series [2], the solubility is 300 µg/mL (≈ 747 µM). This compound registered an IC50 in [3] of 0.015 µM. The compound further came in with an IC50 in series [6] of 0.3 µM. In addition, in [9], the “AUC (0-6 h) in number of IC50's × hours” value stood at 7.4 n IC50 's × h, the AUC(0-t) at 6 h is 91.7 ng·h/mL and the Tmax came out at 30 min.
For `CNC(=O)[C@H](Cc1cccs1)NC(=O)[C@H](CC(C)C)[C@H](O)C(=O)NO` [Example 8, N^2-[3S-Hydroxy-4-(N-hydroxyamino)-2R-isobutylsuccinyl]-L-3-(2-thienyl)alanine-N^1-methylamide], the figures for the IC50 in series [3] and in [6] were 0.01 µM and 0.1 µM, respectively.
